Source: patent US9926276B2, “Substituted benzamides with activity towards EP4 receptors” (DRACONIS PHARMA, S.L., priority 2013, dated 2018)

How the values were obtained:
[1] = molecular target: T1, human EP4 receptor (Homo sapiens, UniProt P35408); assay: Measurement of cAMP responses by Homogeneous Time Resolved Fluorescence (Test 2); type: cell-based; parameters: expressed in transfected cells; conditions: for inhibition at 10 µM: HEK293, PGE2 1 nM, HEK-293 cells stably expressing human EP4, read-out: Results of Test 2 (Functional assay, antagonist % inh); for Results of Test 2 (Functional assay, antagonist % inh): at 10 μM, PGE2 1 nM, HEK-293 cells stably expressing human EP4
Experimental: Test 2: Measurement of cAMP Responses by Homogeneous Time Resolved Fluorescence
cAMP measurements on HEK-293 cells that stably expressed human EP4 receptors were performed by using a system based on Homogeneous Time Resolved Fluorescense (HTRF). This technology allows the direct measurement of cAMP in living cells. The principle of this assay is based on competition between cAMP produced by cells and cAMP-d2 conjugate for the binding with monoclonal anti-cAMP-cryptate conjugate. The HTRF cAMP kit from CisBio was used according to the manufacturer's directions. The experimental procedure was performed as stated below.
Suspended cells (30,000 cells per well) were added to 96-well culture plates in 30 μl of Optimem supplemented with 500 μM IBMX. Compounds were then added in 10 μl of stimulation buffer and incubated at 25° C. for 30 minutes followed by 10 μl of PGE2 to a final concentration of 1 nM. After 30 minutes at 25° C., the reaction was stopped lysing the cells with a mixture of 25 μl of cryptate and 25 μl of cAMP-d2 prepared in the lysis buffer supplied by the manufacturer. Plates were incubated for an additional hour at room temperature and read at 665 nm/620 nm using an UltraEvolution Plate reader (Tecan).
Antagonist percentage inhibition was calculated relating compounds activity to the 0% inhibition of the wells incubated with 1 nM PGE2 alone and 100% inhibition of the wells incubated with 1 nM PGE2 plus 1 μM of the reference antagonist.

[2] = molecular target: T1, human EP4 receptor; assay: Human EP4 receptor radioligand binding assay (Test 1); parameters: expressed in transfected cells; host or cells: HEK-293 cell membranes; conditions: [3H]-PGE2 1 nM, transfected HEK-293 cell membranes; for inhibition at 10 µM: read-out: Results of Test 1 (Binding assay, % inh); for Results of Test 1 (Binding assay, % inh): at 10 μM
Experimental: Test 1: Human EP4 Receptor Radioligand Binding Assay
To investigate binding properties of EP4 receptor ligands to human EP4 receptor, transfected HEK-293 cell membranes and [3H]-PGE2 (Perkin Elmer) were used. In 96-well plates the assay was carried out with a total reaction volume of 250 μl, containing 25 μl of membrane suspension (30 μg protein/well), 25 μl of [3H]-PGE2 (1 nM) in either absence or presence of 25 μl of either buffer or PGE2 (10 μM) for total and non-specific binding, respectively. Binding buffer contained 25 mM MES, 10 mM MgCl2 and 1 mM EDTA at pH 6.0. Plates were incubated at 25° C. for 120 minutes. After the incubation period, 200 μl of incubate were transferred to MultiScreen HTS, FB plates (Millipore), filtered and plates were washed 6 times with ice-cold 10 mM MES, 0.01% BSA at pH 6.0. Filters were dried and counted in a MicroBeta scintillation counter (Perkin-Elmer) using EcoScint liquid scintillation cocktail.
Percentage inhibition was calculated relating compounds activity to the 0% inhibition of the wells incubated with 1 nM [3H]-PGE2 alone (total binding) and 100% inhibition of the wells incubated with 1 nM [3H]-PGE2 plus 10 μM PGE2 (non-specific binding).

T1 sequence (P35408 whole entry): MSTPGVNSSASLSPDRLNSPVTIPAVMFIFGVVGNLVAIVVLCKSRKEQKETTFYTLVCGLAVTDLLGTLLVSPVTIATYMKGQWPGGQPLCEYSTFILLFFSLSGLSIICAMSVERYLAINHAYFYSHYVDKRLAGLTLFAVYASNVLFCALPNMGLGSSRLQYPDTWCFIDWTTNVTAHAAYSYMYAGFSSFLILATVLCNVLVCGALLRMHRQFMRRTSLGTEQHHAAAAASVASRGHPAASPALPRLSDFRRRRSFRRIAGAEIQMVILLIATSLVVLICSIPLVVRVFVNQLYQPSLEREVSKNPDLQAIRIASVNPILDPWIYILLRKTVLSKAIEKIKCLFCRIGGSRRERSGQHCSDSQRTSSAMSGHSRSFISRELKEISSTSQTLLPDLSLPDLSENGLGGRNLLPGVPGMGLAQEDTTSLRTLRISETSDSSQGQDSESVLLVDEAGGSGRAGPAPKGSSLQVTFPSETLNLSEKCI

Compound	inhibition at 10 µM [1]	inhibition at 10 µM [2]	Results of Test 2 (Functional assay, antagonist % inh) [1]	Results of Test 1 (Binding assay, % inh) [2]
Cc1cc(C(=O)O)cc(C)c1NC(=O)c1cc(OCC(C)C)ccc1Cl [Example 24, 4-(2-Chloro-5-isobutoxybenzamido)-3,5-dimethylbenzoic acid]	> 75%	> 75%	–	–
Cc1ccc(-c2cccc(CO)c2)cc1C(=O)Nc1c(Cl)cc(C(=O)O)cc1Cl [Example 6, 3,5-Dichloro-4-(3′-(hydroxymethyl)-4-methylbiphenyl-3-ylcarboxamido)benzoic acid]	–	–	$ (% inh >75)	# (% inh >75)
COc1cccc(-c2ccc(C)c(C(=O)Nc3c(C)cc(C(=O)O)cc3C)c2)c1 [Example 3, 4-(3′-Methoxy-4-methylbiphenyl-3-ylcarboxamido)-3,5-dimethylbenzoic acid]	–	–	$ (% inh >75)	# (% inh >75)
N#Cc1cccc(-c2ccc(Cl)c(C(=O)Nc3c(Cl)cc(C(=O)O)cc3Cl)c2)c1 [Example 18, 3,5-Dichloro-4-(4-chloro-3′-cyanobiphenyl-3-ylcarboxamido)benzoic acid]	–	–	$ (% inh >75)	# (% inh >75)

Second part, the compound after the results:

inhibition at 10 µM [1]	inhibition at 10 µM [2]	Results of Test 2 (Functional assay, antagonist % inh) [1]	Results of Test 1 (Binding assay, % inh) [2]	Compound
–	–	$ (% inh >75)	# (% inh >75)	Cc1ccc(-c2cc(F)ccc2F)cc1C(=O)Nc1c(C)cc(C(=O)O)cc1C [Example 11, 4-(2′,5′-Difluoro-4-methylbiphenyl-3-ylcarboxamido)-3,5-dimethylbenzoic acid]
–	–	$ (% inh >75)	# (% inh >75)	Cc1ccc(-c2cccc(Cl)c2)cc1C(=O)Nc1c(C)cc(C(=O)O)cc1C [Example 20, 4-(3′-Chloro-4-methylbiphenyl-3-ylcarboxamido)-3,5-dimethylbenzoic acid]
–	–	$ (% inh >75)	# (% inh >75)	Cc1ccc(C(=O)O)cc1NC(=O)c1cc(-c2cccc(Cl)c2)ccc1C [Example 38, 3-(3′-Chloro-4-methylbiphenyl-3-ylcarboxamido)-4-methylbenzoic acid]
–	–	$ (% inh >75)	# (% inh >75)	Cc1cc(C(=O)O)ccc1NC(=O)c1cc(-c2cccc(Cl)c2)ccc1Cl [Example 21, 4-(3′,4-Dichlorobiphenyl-3-ylcarboxamido)-3-methylbenzoic acid]
> 75%	> 75%	–	–	O=C(O)c1cc(Cl)c(NC(=O)c2nc(N3CCCCC3)ccc2Cl)c(Cl)c1 [Example 57, 3,5-Dichloro-4-(3-chloro-6-(piperidin-1-yl)picolinamido)benzoic acid]
> 75%	> 75%	–	–	Cc1ccc(C(=O)O)cc1NC(=O)c1nc(-c2cccc(Cl)c2)ccc1Cl [Example 42, 3-(3-Chloro-6-(3-chlorophenyl)picolinamido)-4-methylbenzoic acid]
